Patent US11466273B2, “Monocarboxylate transporter 4 (MCT4) antisense oligonucleotide (ASO) inhibitors for use as therapeutics in the treatment of cancer” (THE UNIVERSITY OF BRITISH COLUMBIA, priority 2015, dated 2022)
Strand notation (5' to 3'): a small letter for the sugar, then the base; units joined by * are phosphorothioate-linked, units joined directly phosphodiester-linked; [ ] holds rarer units or linkages, { } end groups; capitals alone tell only the bases. d = 2'-deoxy (DNA)

Experiments:
MCT4 = experiment: Percent inhibition of MCT4 by MCT4 ASOs (knock-down after transfection, qPCR/Western blot); assay type: cell-based, human
Description: First-generation phosphorothioate-modified ASOs against human MCT4 were rationally designed by selecting sequences containing favourable motifs while excluding unfavourable ones (Matveeva et al., 2000). Specificity of MCT4-targeting sequences, compared to human and mouse genes (at least 3 of 20 bases mismatched), was evaluated using BLAST. Ten sequences SEQ ID No: 1, 4, 5, 9, 11, 30, 36, 37, 40 and 41 (see TABLE A) distributed throughout the length of the transcript with perfect complementarity to all human MCT4 transcript variants (NM_001042422.2, NM_001042423.2, NM_001206950.1, NM_001206951.1, NM_001206952.1, and NM_004207.3) were selected and synthesized by Eurofins MWG Operon. The knock-down efficiencies of these ten ASOs were tested by determining target mRNA and protein expression 48 hours after transfection of cells using qPCR and Western blotting. Two candidate ASOs (#1 and #14—SEQ ID NOs: 1 and 5, respectively) were selected for further studies. Sequences: ASO #1 (SEQ ID NO: 1), 5′-[…]-3′; ASO #14 (SEQ ID NO: 5), 5′-[…]-3′; a published non-targeting control ASO, 5′-[…]-3′ (Mullick et al., 2011; Samuel et al., 2006).
Cells were transfected in 6-well plates with ASOs at 100 nM for 48 hours (unless otherwise indicated) using Oligofectamine™ (Invitrogen™, Carlsbad, Calif.) or with MCT4-targeting siRNAs and controls (Dharmacon™, Chicago, Ill.) at 50 nM for 48 hours using Lipofectamine™ 2000 (Invitrogen™), following the manufacturer's instructions.
Total RNA was isolated using the RNeasy Mini Kit™ (Qiagen Inc.™, Hilden, Germany) and cDNA synthesized using the QuantiTect Reverse Transcription Kit™ (Qiagen™). Primers were designed using Primer-BLAST™. qRT-PCR reactions using KAPA SYBR Fast Universal™ (Kapa Biosystems™, Woburn, Mass.) were performed in triplicate in a ViiA 7 Real-Time PCR™ system (Applied Biosystems™, Foster City, Calif.). Target genes were normalized to a geometric average of 3 internal reference genes (Vandesompele et al., 2002).
Cells were harvested and lysed in RIPA buffer (50 mM Tris-Cl pH 7.4, 150 mM NaCl, 1% Igepal, 0.5% Na-deoxycholate, 0.1% SDS) supplemented with a complete protease inhibitor cocktail (Roche, Nutley, N.J.). The protein concentration of the lysate was determined by Pierce BCA Protein Assay™ (Thermo Scientific™, Waltham, Mass.). The lysate was run on 8% SDS polyacrylamide gel (20 ug of protein per lane) and proteins were transferred onto PVDF membrane (Millipore™, Billerica, Mass.). The blot was blocked with the Odyssey™ blocking buffer (Li-cor Biosciences™) and probed with anti-MCT4 antibody. Vinculin was used as a loading control. Following overnight incubation at 4° C., the primary antibody was probed with the corresponding secondary antibody and detected using the Odyssey Infrared Imaging System™ (Li-cor Biosciences™) and Image Studio Version 3.1™ (Li-cor Biosciences™). Densitometry analysis was done using ImageJ (U.S. National Institutes of Health, Bethesda, Md.).

PC3 cells = experiment: Combination screening, total live PC3 cell numbers; assay type: cell-based, human; conditions: Homo sapiens, PC-3; approximate IC50 used for combination screening, 48 hours; read-out: IC50 Concentration
Description: Human PC-3 and DU145 CRPC cells, human LNCaP prostate cancer cells, and mouse TRAMPC2 prostate cancer cells were purchased from the American Type Culture Collection (ATCC); C4-2 CRPC cells were from the Vancouver Prostate Centre, Vancouver, BC, Canada. Human monolayer cultures were maintained in RPMI-1640 (GE Healthcare Hyclone™, Logan, Utah) supplemented with 10% fetal bovine serum (FBS) (GE Healthcare Hyclone™, Logan, Utah) while TRAMPC2 cells were maintained in DMEM (GE Healthcare Hyclone™, Logan, Utah) supplemented with 5% FBS. For cell counting, cells were trypsinized to form a single cell suspension and counted using a TC20 Automated Cell Counter (Bio-Rad, Hercules, Calif.). Cell viability was assessed by trypan blue exclusion.
Various combination strategies were screened at the approximate IC50 concentrations to determine whether synergistic effects may be found by combining current cancer therapeutics (see TABLE D) with MCT4 ASO SEQ ID NO:5. In FIGS. 10 A-C, the total live PC3 cell numbers were assessed 48 hours after treatment with Metformin, Doxycycline and docetaxel both alone and in combination with MCT4 ASO SEQ ID NO:5.

[1] = Table A, ASOs transfected at 100 nM for 48 hours unless otherwise indicated
[2] = Table B, SEQ ID NO 1 and 16 mer truncations

Row | Molecule | % MCT4 Inhibition (MCT4; [1]) [%] | % MCT4 Inhibition (MCT4; [2]) [%] | IC50 (PC3 cells) [µM]
1 | 35 (dC*dT*dT*dC*dA*dC*dC*dG*dC*dA*dG*dA*dT*dC*dC*dA*dC*dT*dC*dT; antisense; listed as Homo sapiens) [compound 35] | -10.07 |  | 
2 | 36 (dA*dA*dC*dA*dC*dT*dC*dC*dA*dC*dC*dC*dA*dC*dA*dC*dG*dC*dA*dG; antisense; listed as Homo sapiens) [compound 36] | 9.33 |  | 
3 | 37 (dC*dC*dA*dG*dC*dC*dA*dC*dT*dC*dA*dG*dA*dC*dA*dC*dT*dT*dG*dT; antisense; listed as Homo sapiens) [compound 37] | 33.14 |  | 
4 | 38 (dG*dG*dC*dC*dA*dC*dC*dG*dC*dC*dT*dC*dC*dA*dT*dC*dA*dG*dC*dA; antisense; listed as Homo sapiens) [compound 38] | 45.92 |  | 
5 | 39 (dC*dC*dT*dG*dA*dG*dC*dC*dA*dG*dT*dC*dC*dA*dG*dT*dT*dT*dG*dT; antisense; listed as Homo sapiens) [compound 39] | 39.46 |  | 
6 | 40 (dC*dC*dC*dA*dC*dC*dC*dA*dC*dC*dC*dT*dC*dC*dC*dA*dT*dT*dA*dA; antisense; listed as Homo sapiens) [compound 40] | -42.05 |  | 
7 | 41 (dG*dC*dT*dT*dC*dT*dG*dT*dA*dC*dC*dT*dC*dC*dT*dC*dC*dC*dT*dG; antisense; listed as Homo sapiens) [compound 41] | 17.02 |  | 
8 | 42 (dT*dG*dT*dC*dG*dC*dT*dG*dT*dA*dG*dC*dC*dG*dA*dT*dC*dC*dC; antisense; listed as Homo sapiens) [compound 42] | 21.20 |  | 
9 | 43 (TTAAAGTCACGTTGTCTCG; listed as DNA, chemistry not fully specified; listed as Homo sapiens) [compound 43] | 0.27 |  | 
10 | 44 (TTGCGGCTTGGCTTCACCG; listed as DNA, chemistry not fully specified; listed as Homo sapiens) [compound 44] | 31.16 |  | 
11 | 45 (dC*dA*dC*dA*dG*dC*dT*dC*dC*dT*dC*dC*dC*dA*dT*dG*dG*dC*dC*dA*dG*dG; listed as Rattus norvegicus) [compound 45] | 22.4 |  | 
12 | 46 (dA*dT*dG*dG*dC*dC*dA*dG*dG*dA*dG*dG*dG*dT*dT*dG; antisense; listed as Homo sapiens) [compound 46] | 76.03 | 76.03 | 
13 | 47 (dC*dA*dT*dG*dG*dC*dC*dA*dG*dG*dA*dG*dG*dG*dT*dT; antisense; listed as Homo sapiens) [compound 47] | 81.21 | 81.21 | 
14 | 48 (dC*dC*dA*dT*dG*dG*dC*dC*dA*dG*dG*dA*dG*dG*dG*dT; antisense; listed as Homo sapiens) [compound 48] | 77.65 | 77.65 | 
15 | 49 (dC*dC*dC*dA*dT*dG*dG*dC*dC*dA*dG*dG*dA*dG*dG*dG; antisense; listed as Homo sapiens) [compound 49] | 65.76 | 65.76 | 
16 | 50 (dT*dC*dC*dC*dA*dT*dG*dG*dC*dC*dA*dG*dG*dA*dG*dG; antisense; listed as Homo sapiens) [compound 50] | 30.52 | 30.52 | 
17 | 51 (dC*dC*dT*dT*dC*dC*dC*dT*dG*dA*dA*dG*dG*dT*dT*dC*dC*dT*dC*dC; antisense) [compound 51] | 0.00 |  | 
18 | CC(=O)O[C@@]12CO[C@@H]1C[C@H](O)[C@@]1(C)C(=O)[C@H](O)C3=C(C)[C@@H](OC(=O)[C@H](O)[C@@H](NC(=O)OC(C)(C)C)c4ccccc4)C[C@@](O)([C@@H](OC(=O)c4ccccc4)[C@H]21)C3(C)C [Docetaxel] |  |  | 0.0025
19 | C[C@H]1c2cccc(O)c2C(=O)C2=C(O)[C@]3(O)C(=O)C(C(N)=O)=C(O)[C@@H](N(C)C)[C@@H]3[C@@H](O)[C@@H]21 [Doxycycline] |  |  | 15
20 | CN(C)C(=N)N=C(N)N [Metformin] |  |  | 4000
